# Data as given in paper PMC2362940 (British Journal of Cancer, 1999).
# Entries after “also recorded” stand apart in the source; their conditions may differ. Where two headings read alike, the source gives them in different places.
# Key:
# [1] = test system: MCF-7/ADR cells; assay: MTT cytotoxicity of taxol with P-gp inhibitors at 10% or 50% FCS in MCF-7/ADR cells; type: cell-based, human; conditions: for Resistance of MCF-7/ADR cells: MA Russell and DR Ferry, unpublished data; for EC50: Homo sapiens, NCI/ADR-RES
# [2] = test system: P-gp; set-up: method as in Hyafil et al, 1993; conditions: ref Hyafil et al, 1993; cited from earlier work
# [3] = test system: MES-SA cells; assay: Radiolabelled drug accumulation assay in MES-SA cells; type: cell-based, human; conditions: data not shown
# [4] = test system: P388/Dox leukaemia or C26 colon carcinoma; set-up: method as in Hyafil et al, 1993; conditions: single dose of GF120918; ref Hyafil et al, 1993; cited from earlier work
# [5] = test system: MES-Dx5 cells; assay: Reversal of MES-Dx5 resistance to cytotoxics by P-gp inhibitor (MTT assay, % maximal shift); type: cell-based, human; conditions: for EC50: Homo sapiens, MES-Dx5, MTT 72 h
# [6] = test system: MES-Dx5 cells; assay: MTT dye-based cytotoxicity assay, 72-h exposure, P-gp-expressing MES-Dx5 cells; type: cell-based, human; conditions: for EC50: Homo sapiens, read-out: EC50 of cytotoxic drug in MES-Dx5 cells; for EC50 / Resistance factor (RF) of MES-Dx5 relative to MES-SA cells: MTT
# [7] = test system: P-gp; assay: Radiolabelled drug accumulation assay in MES-Dx5 cells; type: cell-based, human; conditions: human, MES-Dx5 cells (P-gp-expressing); read-out: EC50 for reversal of the accumulation deficit, range over all three radiolabelled cytotoxics
# [8] = test system: MES-Dx5 cells; assay: as above; type: cell-based, human; conditions: for EC50: Homo sapiens, MES-Dx5, 4 h; for Accumulation deficit of MES-Dx5 relative to parental MES-SA cells: steady state
# [9] = test system: COR-L23 R; assay: Sensitization of MRP1-expressing COR-L23 R cells to doxorubicin; type: cell-based; conditions: 1 M (µM) GF120918, unpublished data
# [10] = target: P-gp (Homo sapiens, UniProt P08183); assay: in vitro; conditions: membrane preparations of MES-Dx5 cells (P-gp-expressing), MES-Dx5 membranes
# Sequence of P-gp (P08183 whole entry): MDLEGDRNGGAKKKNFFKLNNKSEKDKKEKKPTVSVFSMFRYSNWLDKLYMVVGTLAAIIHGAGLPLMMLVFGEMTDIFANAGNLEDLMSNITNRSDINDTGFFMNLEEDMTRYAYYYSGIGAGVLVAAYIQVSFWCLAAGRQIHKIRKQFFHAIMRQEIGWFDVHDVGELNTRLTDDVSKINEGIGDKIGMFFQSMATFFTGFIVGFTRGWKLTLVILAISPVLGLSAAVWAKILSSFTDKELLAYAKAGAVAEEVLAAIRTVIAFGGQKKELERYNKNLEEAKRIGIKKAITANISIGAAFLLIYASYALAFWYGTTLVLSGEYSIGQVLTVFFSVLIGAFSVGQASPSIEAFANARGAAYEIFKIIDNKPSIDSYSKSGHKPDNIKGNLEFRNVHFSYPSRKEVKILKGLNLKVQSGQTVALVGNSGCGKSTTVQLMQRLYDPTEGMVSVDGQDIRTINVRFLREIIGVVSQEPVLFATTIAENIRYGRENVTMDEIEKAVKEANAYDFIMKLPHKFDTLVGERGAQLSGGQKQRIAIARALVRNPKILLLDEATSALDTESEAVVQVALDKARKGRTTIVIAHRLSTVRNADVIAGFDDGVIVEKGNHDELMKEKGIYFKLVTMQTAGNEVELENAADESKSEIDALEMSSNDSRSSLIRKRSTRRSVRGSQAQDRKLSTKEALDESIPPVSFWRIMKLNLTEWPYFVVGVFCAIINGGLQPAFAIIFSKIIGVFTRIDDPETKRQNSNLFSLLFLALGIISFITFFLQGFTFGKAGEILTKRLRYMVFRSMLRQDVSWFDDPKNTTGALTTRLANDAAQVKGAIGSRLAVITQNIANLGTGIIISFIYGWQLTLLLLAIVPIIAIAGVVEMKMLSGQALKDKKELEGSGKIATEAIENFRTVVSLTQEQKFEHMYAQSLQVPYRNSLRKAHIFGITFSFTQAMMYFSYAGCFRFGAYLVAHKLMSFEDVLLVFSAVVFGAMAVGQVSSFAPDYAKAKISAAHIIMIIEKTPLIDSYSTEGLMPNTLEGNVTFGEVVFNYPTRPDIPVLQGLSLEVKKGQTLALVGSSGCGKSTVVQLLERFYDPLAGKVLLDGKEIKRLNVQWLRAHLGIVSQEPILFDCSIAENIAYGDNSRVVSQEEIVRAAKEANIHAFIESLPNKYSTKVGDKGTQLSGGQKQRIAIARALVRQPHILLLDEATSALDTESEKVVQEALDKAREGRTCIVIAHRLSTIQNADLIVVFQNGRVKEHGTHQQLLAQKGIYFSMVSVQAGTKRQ
# [11] = target: T1, P-gp in MES-Dx5 membranes (Homo sapiens, UniProt P08183)
# T1 sequence (P08183 whole entry): as above
# [12] = test system: MES-SA cells; assay: MTT dye-based cytotoxicity assay, 72-h exposure, parental MES-SA cells; conditions: Homo sapiens, read-out: EC50 of cytotoxic drug in MES-SA cells
# [13] = target: T1, P-gp in MES-Dx5 membranes; assay: biochemical
# [14] = test system: MCF-7 WT cells; assay: cells; conditions: Homo sapiens, MCF7, 72 h
# [15] = test system: MCF-7 WT cells
# [16] = inhibition of [3H]-vinblastine binding, single representative experiment, Figure 7B, 5 nM [3H]-vinblastine
compound,measurement,setting,value
CO[C@@H]1[C@H](N(C)C(=O)c2ccccc2)C[C@H]2O[C@]1(C)n1c3ccccc3c3c4c(c5c6ccccc6n2c5c31)C(=O)NC4 [CGP 41251],Ratio of EC50s (50% FCS vs 10% FCS) in presence of P-gp inhibitor,"[1]; MCF-7/ADR, taxol, MTT 72 h",30 fold
COC(=O)C1=C(C)NC(C)=C(C(=O)OCCCN2CCC(c3ccccc3)(c3ccccc3)CC2)[C@@H]1c1cccc([N+](=O)[O-])c1 [Dexniguldipine],Ratio of EC50s (50% FCS vs 10% FCS) in presence of P-gp inhibitor,[1],37 fold
COc1cc2c(cc1OC)CN(CCc1ccc(NC(=O)c3cccc4c(=O)c5cccc(OC)c5[nH]c34)cc1)CC2 [GF120918],Concentration at which activity was consistently achieved in vitro,[2],[…]
same,Effect on cellular content of radiolabelled cytotoxics in sensitive MES-SA cells,[3],did not increase
same,Sensitization of xenograft-bearing mice to doxorubicin,[4],sensitized mice
same,EC50,"[5]; read-out: EC50 of GF120918 to reverse resistance (shifts sensitivity by 50%) to doxorubicin, cytotoxic doxorubicin",21 ± 6 nM
same,EC50,"[5]; read-out: EC50 of GF120918 to reverse resistance (shifts sensitivity by 50%) to etoposide, cytotoxic etoposide",7 ± 2 nM
same,EC50,"[5]; read-out: EC50 of GF120918 to reverse resistance (shifts sensitivity by 50%) to taxol, cytotoxic taxol",91 ± 23 nM
same,EC50,"[5]; read-out: EC50 of GF120918 to reverse resistance (shifts sensitivity by 50%) to taxotere, cytotoxic taxotere",57 ± 14 nM
same,EC50,"[5]; read-out: EC50 of GF120918 to reverse resistance (shifts sensitivity by 50%) to vinblastine, cytotoxic vinblastine",19 ± 3 nM
same,"Extent of reversal of MES-Dx5 resistance, all tested cytotoxic drugs",[5]; to level of parental MES-SA cells,reversed resistance completely; also recorded: fully reverse resistance
same,Cytotoxic effect of GF120918 alone,[6]; MTT assay,did not produce a cytotoxic effect
same,EC50,"[8]; read-out: [GF120918] reverses accumulation-deficit by 50%, [3H]-taxol",37 nM
same,EC50,"[8]; read-out: [GF120918] reverses accumulation-deficit by 50%, [3H]-vinblastine",48 nM
same,EC50,"[8]; read-out: [GF120918] reverses accumulation-deficit by 50%, [14C]-doxorubicin",64 nM
same,"Sensitization of COR-L23 R (MRP1, not P-gp) to doxorubicin",[9],not sensitized
C/C=C/C[C@@H](C)C(=O)[C@H]1C(=O)N[C@@H](C(C)C)C(=O)N(C)CC(=O)N(C)[C@@H](CC(C)C)C(=O)N[C@@H](C(C)C)C(=O)N(C)[C@@H](CC(C)C)C(=O)N[C@@H](C)C(=O)N[C@H](C)C(=O)N(C)[C@@H](CC(C)C)C(=O)N(C)[C@@H](CC(C)C)C(=O)N(C)[C@@H](C(C)C)C(=O)N1C [PSC 833],Ratio of EC50s (50% FCS vs 10% FCS) in presence of P-gp inhibitor,"[1]; MCF-7/ADR, taxol, MTT 72 h",19 fold
CC(=O)O[C@H]1C(=O)[C@@]2(C)[C@H]([C@H](OC(=O)c3ccccc3)[C@]3(O)C[C@H](OC(=O)[C@H](O)[C@@H](NC(=O)c4ccccc4)c4ccccc4)C(C)=C1C3(C)C)[C@]1(OC(C)=O)CO[C@@H]1C[C@@H]2O [[3 H]-taxol],Accumulation deficit of MES-Dx5 relative to parental MES-SA cells,[8],20%
CC[C@]1(O)C[C@@H]2CN(CCc3c([nH]c4ccccc34)[C@@](C(=O)OC)(c3cc4c(cc3OC)N(C)[C@H]3[C@@](O)(C(=O)OC)[C@H](OC(C)=O)[C@]5(CC)C=CCN6CC[C@]43[C@@H]65)C2)C1 [[3 H]-vinblastine],Kd,"[10]; KD of [3H]-vinblastine binding, saturation analysis (mean)",7.8 ± 1.4 nM
same,Bmax of [3H]-vinblastine binding in the presence of ATP and MgCl2,"[11]; Figure 6, 1 mM ATP and 3 mM MgCl2, single experiment",10.9 pmol mg-1 protein
same,"Bmax of [3H]-vinblastine binding, single representative experiment","[11]; Figure 6, control without ATP/MgCl2",8.6 pmol mg-1 protein
same,Bmax of [3H]-vinblastine binding (mean),[11]; MES-Dx5 membranes,5.2 pmol mg-1 protein
same,Bmax of [3H]-vinblastine binding (mean),"[11]; MES-Dx5 membranes, listed as [^3H]-vinblastine",5.2 ± 1.6 pmol mg-1 protein
COc1cccc2c1C(=O)c1c(O)c3c(c(O)c1C2=O)C[C@@](O)(C(=O)CO)C[C@@H]3O[C@H]1C[C@H](N)[C@H](O)[C@H](C)O1 [[14 C]-doxorubicin],Accumulation deficit of MES-Dx5 relative to parental MES-SA cells,[8],20%
COc1cccc2c1C(=O)c1c(O)c3c(c(O)c1C2=O)C[C@@](O)(C(=O)CO)C[C@@H]3O[C@H]1C[C@H](N)[C@H](O)[C@H](C)O1 [doxorubicin],EC50,[12],58 nM
same,Resistance of MCF-7/ADR cells,[1],200 fold
same,EC50,[6],534 nM
same,Ki,"[13]; inhibition of [3H]-vinblastine binding to P-gp (mean), MES-Dx5 membranes, 21C",6.94 ± 2.1 µM
same,Ki,[13]; [16],112 µM
COc1cc([C@@H]2c3cc4c(cc3[C@@H](O[C@@H]3O[C@@H]5CO[C@@H](C)O[C@H]5[C@H](O)[C@H]3O)[C@H]3COC(=O)[C@H]23)OCO4)cc(OC)c1O [etoposide],EC50,[12],3000 nM
same,EC50,[6],6850 nM
CC(=O)O[C@H]1C(=O)[C@@]2(C)[C@H]([C@H](OC(=O)c3ccccc3)[C@]3(O)C[C@H](OC(=O)[C@H](O)[C@@H](NC(=O)c4ccccc4)c4ccccc4)C(C)=C1C3(C)C)[C@]1(OC(C)=O)CO[C@@H]1C[C@@H]2O [taxol],EC50,[12],5 nM
same,EC50,"[14]; read-out: EC50 of taxol without inhibitor, 10% FCS",6 nM
same,EC50,"[14]; read-out: EC50 of taxol without inhibitor, 50% FCS",5 nM
same,EC50,"[1]; read-out: EC50 of taxol without inhibitor, 10% FCS, MCF-7/ADR, MTT 72 h",8.5 µM
same,EC50,"[1]; read-out: EC50 of taxol without inhibitor, 50% FCS, MCF-7/ADR, MTT 72 h",4.6 µM
same,Resistance of MCF-7/ADR cells,[1],1000 fold
same,Ki at 3 h,"[10]; probe [3H]-vinblastine, Ki, inhibition of [3H]-vinblastine binding to P-gp (mean), 3 h, 21C",400 ± 140 nM
same,Maximal displacement of [3H]-vinblastine bound to P-gp,"[11]; MES-Dx5 membranes, allosteric inhibitor",40%
same,"Ratio of EC50s (50% FCS vs 10% FCS), taxol without inhibitor",[15],0.84
same,EC50,[6],470 nM
same,Resistance factor (RF) of MES-Dx5 relative to MES-SA cells,[6],94 fold
same,Ki,[13]; [16],0.096 µM
CC(=O)O[C@@]12CO[C@@H]1C[C@H](O)[C@@]1(C)C(=O)[C@H](O)C3=C(C)[C@@H](OC(=O)[C@H](O)[C@@H](NC(=O)OC(C)(C)C)c4ccccc4)C[C@@](O)([C@@H](OC(=O)c4ccccc4)[C@H]21)C3(C)C [taxotere],EC50,[12],5 nM
same,EC50,[6],93 nM
same,Resistance factor (RF) of MES-Dx5 relative to MES-SA cells,[6],19 fold
CC[C@]1(O)C[C@@H]2CN(CCc3c([nH]c4ccccc34)[C@@](C(=O)OC)(c3cc4c(cc3OC)N(C)[C@H]3[C@@](O)(C(=O)OC)[C@H](OC(C)=O)[C@]5(CC)C=CCN6CC[C@]43[C@@H]65)C2)C1 [vinblastine],EC50,[12],3 nM
same,EC50,[6],30 nM
